# Measurements reported in ChEMBL document CHEMBL1137587, “MCH-R1 antagonists based on an arginine scaffold: SAR studies on the amino-terminus” (Bioorg Med Chem Lett, 2007).
# Target: Melanin-concentrating hormone receptor 1 (Homo sapiens, UniProt Q99705)
# Assay: Functional antagonism of MCH-R1 expressed in HEK293 cells
# Assay type: cell-based
# Chain of Melanin-concentrating hormone receptor 1 (Q99705 whole entry): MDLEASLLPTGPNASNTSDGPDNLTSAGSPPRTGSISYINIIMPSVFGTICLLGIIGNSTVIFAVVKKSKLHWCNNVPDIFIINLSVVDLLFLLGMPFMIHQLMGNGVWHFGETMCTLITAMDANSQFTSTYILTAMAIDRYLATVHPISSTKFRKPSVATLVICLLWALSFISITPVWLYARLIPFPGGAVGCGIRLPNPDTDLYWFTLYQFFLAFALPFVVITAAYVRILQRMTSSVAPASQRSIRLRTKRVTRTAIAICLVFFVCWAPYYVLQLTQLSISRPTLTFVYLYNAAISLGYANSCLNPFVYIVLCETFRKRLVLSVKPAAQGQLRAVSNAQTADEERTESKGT
row,SMILES,IC50 [µM]
1,N=C(N)NCCC[C@@H](NC(=O)c1cccc2ccccc12)C(=O)NCc1ccc(C(F)(F)F)cc1,1.8
2,N=C(N)NCCC[C@@H](NC(=O)c1cc2ccccc2o1)C(=O)NCc1ccc(C(F)(F)F)cc1,0.313
3,N=C(N)NCCC[C@@H](NC(=O)C(c1ccccc1)c1ccccc1)C(=O)NCc1ccc(C(F)(F)F)cc1,0.112
4,N=C(N)NCCC[C@@H](NC(=O)c1ccnc2ccccc12)C(=O)NCc1ccc(C(F)(F)F)cc1,1.03
5,N=C(N)NCCC[C@@H](NC(=O)c1cc2ccccc2[nH]1)C(=O)NCc1ccc(C(F)(F)F)cc1,0.02
6,N=C(N)NCCC[C@@H](NC(=O)C1c2ccccc2Oc2ccccc21)C(=O)NCc1ccc(C(F)(F)F)cc1,0.004
7,N=C(N)NCCC[C@@H](NC(=O)Cc1cccc2ccccc12)C(=O)NCc1ccc(C(F)(F)F)cc1,0.243
8,COc1ccc2[nH]c(C(=O)N[C@H](CCCNC(=N)N)C(=O)NCc3ccc(C(F)(F)F)cc3)cc2c1,0.078
9,N=C(N)NCCC[C@@H](NC(=O)Cc1csc2ccccc12)C(=O)NCc1ccc(C(F)(F)F)cc1,1.01
10,COc1ccc2cc(C(=O)N[C@H](CCCNC(=N)N)C(=O)NCc3ccc(C(F)(F)F)cc3)ccc2c1,0.443
11,N=C(N)NCCC[C@@H](NC(=O)C1c2ccccc2Cc2ccccc21)C(=O)NCc1ccc(C(F)(F)F)cc1,0.763
12,N=C(N)NCCC[C@@H](NC(=O)c1cc2ccccc2s1)C(=O)NCc1ccc(C(F)(F)F)cc1,0.045
13,N=C(N)NCCC[C@@H](NC(=O)c1cc2cc(F)ccc2[nH]1)C(=O)NCc1ccc(C(F)(F)F)cc1,0.025
14,N=C(N)NCCC[C@@H](NC(=O)c1ccc2ccccc2c1)C(=O)NCc1ccc(C(F)(F)F)cc1,0.212
15,N=C(N)NCCC[C@@H](NC(=O)c1cc2ccccc2cn1)C(=O)NCc1ccc(C(F)(F)F)cc1,1.81
16,N=C(N)NCCC[C@@H](NC(=O)Cc1cc2ccccc2[nH]1)C(=O)NCc1ccc(C(F)(F)F)cc1,0.512
17,N=C(N)NCCC[C@@H](NC(=O)c1csc2ccccc12)C(=O)NCc1ccc(C(F)(F)F)cc1,0.952
18,COc1cccc2cc(C(=O)N[C@H](CCCNC(=N)N)C(=O)NCc3ccc(C(F)(F)F)cc3)oc12,0.622
19,N=C(N)NCCC[C@@H](NC(=O)c1cnc2ccccc2c1)C(=O)NCc1ccc(C(F)(F)F)cc1,0.096
20,N=C(N)NCCC[C@@H](NC(=O)C1c2ccccc2-c2ccccc21)C(=O)NCc1ccc(C(F)(F)F)cc1,0.005
21,N=C(N)NCCC[C@@H](NC(=O)c1ccc2ccccc2n1)C(=O)NCc1ccc(C(F)(F)F)cc1,0.904
22,N=C(N)NCCC[C@@H](NC(=O)c1ccc(F)c2ccccc12)C(=O)NCc1ccc(C(F)(F)F)cc1,0.311
